Measurements: EP0598515A1, “Method for herbicidal activity-enhancing, activity-enhanced herbicidal composition and activity-enhancing composition” (ISHIHARA SANGYO KAISHA LTD., priority 1992, dated 1994)
Like-named read-outs stand apart in the source and are kept apart here.

Assays:
Type in all cases: in vivo
[1] = tested on: Crabgrass (Digitaria sanginalis L.); assay: Test Example 11: pot test, Example 8 suspension concentrate with kinds of EFAS; conditions: EFAS: No addition, 23 days after treatment, duplicate
Method: Crabgrass (Digitaria sanginalis L.) seeds were sown in 1/1,000,000-hectare pots filled with upland soil and arranged in a duplicate system. When the crabgrass plants grew to a 4-leaf stage, the oil-based suspension concentrate obtained in Example 8 was diluted with 200 liters/hectare of water containing a predetermined amount of an ethoxylated fatty amine type surfactant (EFAS) and was applied foliarly to the plants with a small spray gun.
Twenty three days after treatment, the growth inhibition of plants was evaluated with visual observation in the same manner as in Test Example 1 and are shown in Table 11.

[2] = tested on: Velvetleaf (Abutilon theophrasti MEDIC.); assay: Test Example 12: field plot test, growth inhibition; conditions: Example 8 suspension concentrate, 27 days after treatment, field plots; for inhibition at 40 g/ha: Compound A 40 g/ha
Excerpt: (§1) In field plots of 3 m² (1 m × 3 m) unit arranged in a duplicate system, seeds of corn, crabgrass (Digitaria sanguinalis L.), green foxtail (Setaria viridis L.), common lambsquarters (Chenopodium album L.), slender amaranth (Amaranthus virdis L.) and velvetleaf (Abutilon theophrasti MEDIC.) were sown and grown. Also, barnyardgrass (Echinochloa crus-galli L.), henbit (Lamiun amplexlcaule L.), pale smartweed (Polygonum lapathifolium L.) and threeseeded copperleaf (Acalypha australis L.) were allowed to grow spontaneously. When the plants grew to certain stages (corn: 6.1 to 6.5-leaf stage, crabgrass: 2.0 to 4.5-leaf stage, green foxtail: 3.0 to 4.5-leaf stage, common lambsquarters: 4.0 to 8.0-leaf stage, slender amaranth: 1.0 to 4.0-leaf stage, velvetleaf: 2.0 to 3.5-leaf stage, barnyardgrass: 3.0 to 4.5-leaf stage, henbit: 2.0 to 5.0 cm, pale smartweed: 3.0 to 5.0-leaf stage and threeseeded copperleaf: 2.0 to 4.0-leaf stage), the oil-based suspension concentrate obtained in Example 8 was diluted with 200 liters/hectare of water containing a predetermined amount of Frigate and was applied foliarly to the plants with a small spray gun.
(§2) Twenty seven days after treatment, the growth inhibition of plants except for corn plants was evaluated with visual observation in the same manner as in Test Example 1 and are shown in Table 12.

[3] = tested on: pale smartweed (Polygonum lapathifolium L.); assay: as above; conditions: Example 8 suspension concentrate, 27 days after treatment, field plots; for inhibition at 60 g/ha: Compound A 60 g/ha
Excerpt: as §1, §2

[4] = tested on: Common lambsquarters (Chenopodium album L.); assay: as above; conditions: Example 8 suspension concentrate, 27 days after treatment, field plots; for inhibition at 40 g/ha: Compound A 40 g/ha; for inhibition at 60 g/ha: Compound A 60 g/ha
Excerpt: as §1, §2

[5] = tested on: green foxtail (Setaria viridis L.); assay: as above; conditions: 648 h, Example 8 suspension concentrate, 27 days after treatment, field plots, read-out: Growth Inhibition (%) SV
Excerpt: as §1, §2

[6] = tested on: barnyardgrass (Echinochloa crus-galli L.); assay: as above; conditions: 648 h, Example 8 suspension concentrate, 27 days after treatment, field plots, read-out: Growth Inhibition (%) EC
Excerpt: as §1, §2

[7] = tested on: henbit (Lamiun amplexlcaule L.); assay: as above; conditions: 648 h, Example 8 suspension concentrate, 27 days after treatment, field plots, read-out: Growth Inhibition (%) LA
Excerpt: as §1, §2

[8] = tested on: Crabgrass (Digitaria sanguinalis L.); assay: as above; conditions: 648 h, Example 8 suspension concentrate, 27 days after treatment, field plots, read-out: Growth Inhibition (%) DS; for inhibition at 40 g/ha: Compound A 40 g/ha; for inhibition at 60 g/ha: Compound A 60 g/ha
Excerpt: as §1, §2

[9] = tested on: slender amaranth (Amaranthus virdis L.); assay: as above; conditions: 648 h, Example 8 suspension concentrate, 27 days after treatment, field plots, read-out: Growth Inhibition (%) AV; for inhibition at 40 g/ha: Compound A 40 g/ha; for inhibition at 60 g/ha: Compound A 60 g/ha
Excerpt: as §1, §2

[10] = tested on: threeseeded copperleaf (Acalypha australis L.); assay: as above; conditions: Example 8 suspension concentrate, 27 days after treatment, field plots; for inhibition at 40 g/ha: Compound A 40 g/ha
Excerpt: as §1, §2

[11] = Frigate 0.2 % by volume, Compound A 60 g/ha
[12] = Frigate 0.2 % by volume, Compound A 20 g/ha
[13] = Chenopodium album, 648 h, Frigate 0.2 % by volume, read-out: Growth Inhibition (%) CA
[14] = Chenopodium album, 648 h, Frigate: No addition, read-out: Growth Inhibition (%) CA
[15] = Frigate 0.2 % by volume, Compound A 30 g/ha
[16] = Frigate 0.2 % by volume, Compound A 40 g/ha
[17] = Frigate: No addition, Compound A 60 g/ha

COc1cc(OC)nc(NC(=O)NS(=O)(=O)c2ncccc2C(=O)N(C)C)n1 [Compound A, N-[(4,6-dimethoxypyrimidin-2-yl)aminocarbonyl]-3-dimethylaminocarbonyl-2-pyridinesulfonamide]
inhibition at 10 g/ha ([1]; Digitaria, 552 h, Compound A 10 g/ha, read-out: Growth Inhibition (%) of Crabgrass): 70%
inhibition at 20 g/ha ([1]; Digitaria, 552 h, Compound A 20 g/ha, read-out: Growth Inhibition (%) of Crabgrass): 98%
inhibition at 40 g/ha ([1]; Digitaria, 552 h, Compound A 40 g/ha, read-out: Growth Inhibition (%) of Crabgrass): 98%
Growth Inhibition (%) of Crabgrass ([1]; Compound A 10 g/ha): 55%
Growth Inhibition (%) of Crabgrass ([1]; Compound A 20 g/ha): 90%
inhibition at 20 g/ha ([2]; Abutilon theophrasti, 648 h, Frigate 0.2 % by volume, Compound A 20 g/ha): 75%
inhibition at 30 g/ha ([2]; Abutilon theophrasti, 648 h, Frigate 0.2 % by volume, Compound A 30 g/ha): 80%
inhibition at 40 g/ha ([2]; Abutilon theophrasti, 648 h, Frigate 0.2 % by volume): 80%
inhibition at 60 g/ha ([2]; Abutilon theophrasti, 648 h, Frigate 0.2 % by volume, Compound A 60 g/ha): 95%
inhibition at 40 g/ha ([2]; Abutilon theophrasti, 648 h, Frigate: No addition): 70%
inhibition at 60 g/ha ([2]; Abutilon theophrasti, 648 h, Frigate: No addition, Compound A 60 g/ha): 65%
Growth Inhibition (%) AT [2, 11]: 100%
Growth Inhibition (%) PL [3, 12]: 80%
Growth Inhibition (%) PL ([3]; Frigate: No addition, Compound A 40 g/ha): 70%
inhibition at 20 g/ha ([3]; Persicaria lapathifolia, 648 h, Frigate 0.2 % by volume, Compound A 20 g/ha, read-out: Growth Inhibition (%) PL): 100%
inhibition at 30 g/ha ([3]; Persicaria lapathifolia, 648 h, Frigate 0.2 % by volume, Compound A 30 g/ha, read-out: Growth Inhibition (%) PL): 100%
inhibition at 40 g/ha ([3]; Persicaria lapathifolia, 648 h, Frigate 0.2 % by volume, Compound A 40 g/ha, read-out: Growth Inhibition (%) PL): 95%
inhibition at 60 g/ha ([3]; Persicaria lapathifolia, 648 h, Frigate 0.2 % by volume, read-out: Growth Inhibition (%) PL): 98%
inhibition at 40 g/ha ([3]; Persicaria lapathifolia, 648 h, Frigate: No addition, Compound A 40 g/ha, read-out: Growth Inhibition (%) PL): 90%
inhibition at 60 g/ha ([3]; Persicaria lapathifolia, 648 h, Frigate: No addition, read-out: Growth Inhibition (%) PL): 100%
inhibition at 20 g/ha ([4]; Chenopodium album, 648 h, Frigate 0.2 % by volume, Compound A 20 g/ha, read-out: Growth Inhibition (%) CA): 80%
inhibition at 30 g/ha ([4]; Chenopodium album, 648 h, Frigate 0.2 % by volume, Compound A 30 g/ha, read-out: Growth Inhibition (%) CA): 80%
inhibition at 40 g/ha [4, 13]: 95%
inhibition at 60 g/ha [4, 13]: 99%
inhibition at 40 g/ha [4, 14]: 40%
inhibition at 60 g/ha [4, 14]: 50%
Growth Inhibition (%) CA [4, 12]: 75%
inhibition at 20 g/ha [5, 12]: 100%
inhibition at 30 g/ha [5, 15]: 100%
inhibition at 40 g/ha [5, 16]: 100%
inhibition at 60 g/ha [5, 17]: 100%
inhibition at 20 g/ha [6, 12]: 100%
inhibition at 30 g/ha [6, 15]: 100%
inhibition at 40 g/ha [6, 16]: 100%
inhibition at 60 g/ha [6, 17]: 100%
inhibition at 20 g/ha [7, 12]: 98%
inhibition at 30 g/ha [7, 15]: 98%
inhibition at 40 g/ha [7, 16]: 98%
inhibition at 60 g/ha [7, 17]: 98%
inhibition at 20 g/ha [8, 12]: 90%
inhibition at 30 g/ha [8, 15]: 95%
inhibition at 40 g/ha ([8]; Frigate 0.2 % by volume): 95%
inhibition at 60 g/ha ([8]; Frigate 0.2 % by volume): 99%
inhibition at 40 g/ha ([8]; Frigate: No addition): 95%
inhibition at 60 g/ha ([8]; Frigate: No addition): 98%
inhibition at 20 g/ha [9, 12]: 100%
inhibition at 30 g/ha [9, 15]: 99%
inhibition at 40 g/ha ([9]; Frigate 0.2 % by volume): 99%
inhibition at 60 g/ha ([9]; Frigate 0.2 % by volume): 99%
inhibition at 40 g/ha ([9]; Frigate: No addition): 99%
inhibition at 60 g/ha ([9]; Frigate: No addition): 99%
inhibition at 20 g/ha ([10]; Acalypha australis, 648 h, Frigate 0.2 % by volume, Compound A 20 g/ha, read-out: Growth Inhibition (%) AA): 90%
inhibition at 30 g/ha ([10]; Acalypha australis, 648 h, Frigate 0.2 % by volume, Compound A 30 g/ha, read-out: Growth Inhibition (%) AA): 90%
inhibition at 40 g/ha ([10]; Acalypha australis, 648 h, Frigate 0.2 % by volume, read-out: Growth Inhibition (%) AA): 95%
inhibition at 60 g/ha ([10]; Acalypha australis, 648 h, Frigate 0.2 % by volume, Compound A 60 g/ha, read-out: Growth Inhibition (%) AA): 90%
inhibition at 40 g/ha ([10]; Acalypha australis, 648 h, Frigate: No addition, read-out: Growth Inhibition (%) AA): 90%
inhibition at 60 g/ha ([10]; Acalypha australis, 648 h, Frigate: No addition, Compound A 60 g/ha, read-out: Growth Inhibition (%) AA): 90%
Growth Inhibition (%) AA [10, 11]: 98%
